# Structures can show the parent of a compound that is named as a salt.
# Experiments:
# [1] = test system: Na^+ channel (site 2), sodium channel; assay: Off-target binding, General SEP II panel; conditions: 10 μM ITI-214, mean of n = 2
# [2] = test system: Ca^2+ channel (L, DHP site); assay: Off-target binding, General SEP II panel; conditions: 10 μM ITI-214, mean of n = 2
# [3] = test system: 70 key receptor, enzyme, and ion channel proteins; assay: 70-target diversity panel (SEP II), whole panel; type: binding; conditions: 10 μM, 70-target panel
# [4] = test system: early memory consolidation in male Wistar rats; assay: Novel object recognition (NOR): early consolidation, drug 4 min after T1; type: in vivo, rat; conditions: 4 min after T1 (head prints T2 +4 min)
# Procedure: (§1) The drug was administered, per os (po), by gavage to rats in a volume of 2 ml/kg body weight. Oral dosing solutions were prepared fresh daily. […] The pH of the dosing solution was adjusted to ~pH 5.5 by dropwise addition of 0.1 N NaOH in saline and volume adjusted by addition of saline in preparation for intraperitoneal (ip) dosing. […] Control treatments were always the vehicle solutions of the corresponding drugs.
# The object recognition test was performed as described elsewhere (Ennaceur and Delacour [1988]; Akkerman et al. 2014). The apparatus consisted of a circular arena, 83 cm in diameter. Half of the 40-cm-high wall was made of gray polyvinyl chloride, the other half of transparent polyvinyl chloride. The light intensity was equal in the different parts of the apparatus, as fluorescent red tubes provided a constant illumination of about 20 lx on the floor of the apparatus. Two objects were placed in a symmetrical position at about 10 cm from the gray wall. Four different sets of objects were used. The different objects were (1) a cone consisting of a gray polyvinyl chloride base (maximal diameter 18 cm) with a collar on top made of brass (total height 16 cm), (2) a standard 1 L transparent glass bottle (diameter 10 cm, height 22 cm) filled with water, (3) a large metal cube (10.0 × 5.0 × 7.5 cm) with two holes (diameter 1.9 cm), and (4) a large aluminum cube with a tapering top (13.0 × 8.0 × 8.0 cm). The objects used in this study were carefully selected to be “novelty neutral,” that is to say the rats have no innate preference for one over the other. In all cases, objects were of sufficient size and weight that rats could not move the objects.
# A testing session consisted of two trials. The duration of each trial was 3 min. During the first trial (T1), the apparatus contained two identical objects (samples). Rats were placed in the apparatus facing the wall at the middle of the front (transparent) segment. After the first exploration period, the rat was put back in its home cage. Subsequently, after a 24-h delay interval, the rat was put in the apparatus for the second trial (T2). The times spent in exploring each object during T1 and T2 were recorded manually using a personal computer.
# Exploration was defined as follows: directing the nose to the object at a distance of no more than 2 cm and/or touching the object with the nose. Sitting on the object was not considered as exploratory behavior. In order to avoid the presence of olfactory cues, the objects were always thoroughly cleaned with a 70 % ethanol solution before each trial. All combinations and locations of objects were used in a balanced manner to reduce potential biases due to preferences for particular locations or objects.
# During the first 2 weeks after animal arrival, the animals were handled daily. They were then adapted to the procedure over the period of 2 days by allowing them to explore the apparatus (without any objects) for 3 min twice each day. […] After this, the rats were assigned to treatment conditions in a balanced manner, thereby insuring an equal distribution of object combinations among the treatment conditions. […] In all experiments, a 24-h inter-trial interval was used. In all cases, the experimenter was unaware of the treatment conditions that were being tested.
# The basic measure recorded was the time spent by each rat exploring an object during T1 and T2. The time spent in exploring the two identical samples was represented by “a1” and “a2.” The time spent in T2 in exploring the sample and new object was represented by “a” and “b,” respectively. The following variables were calculated: e1 = a1 + a2, e2 = a + b, and d2 = (b − a) / e2. The e1 and e2 are measures of the total exploration time of both objects during T1 and T2, respectively. Differences in exploration times between treatment conditions were analyzed using a t test or one-way ANOVA. […]
# [5] = test system: conditioned avoidance responding in male Wistar rats; assay: Conditioned avoidance response (CAR); type: in vivo, rat
# Procedure: as §1
# Avoidance behavior, escape behavior, escape failures, and inter-trial crosses were recorded, as described here: (1) avoidance (response to CS within 10 s); (2) escape (response to CS + UCS); and (3) escape failure (if the rat was unable to respond to the shock by moving into the opposite compartment within 50 s, the trial was terminated). The inter-trial interval (end of trial to start of new trial) varied randomly between 20 and 40 s. Rats were trained for five consecutive days and adapted to the shuttle box 5 min before each training session. Training sessions consisted of about 20 trials, randomly distributed over 15 min. Only rats that performed at least 90 % avoidance on the last day of training were included in the experiments. All subsequent test sessions were preceded by a pre-test to verify continued performance in the paradigm. Pre-tests and test sessions consisted of approximately ten trials, each randomly distributed over a 7.5-min period. […] Experimental days were always separated by at least two non-experimental days. Experimental tests were separated by at least 2 days to insure drug washout.
# Results from the conditioned avoidance responding (CAR) protocol were analyzed using non-parametric procedures.
smiles,measurement,setting,value
"CN1C(=O)c2c(nn(Cc3ccc(-c4cccc(F)n4)cc3)c2Nc2ccccc2)N2C1=N[C@@H]1CCC[C@@H]12 [ITI-214, (6aR,9aS)-2-(4-(6-fluoropyridin-2-yl)benzyl)-5-methyl-3-(phenylamino)-5,6a,7,8,9,9a-hexahydrocyclopenta-[4,5]imidazo[1,2-a]pyrazolo[4,3-e]pyrimidin-4-(2H)-one phosphate salt]",% Binding,[1],88.44%
same,% Binding,[2],73.28%
same,number of panel targets showing >50 % binding,[3],4
same,Exploration time e1 (T1),[4]; 1 mg/kg po,26.36 (1.93) s
same,Exploration time e2 (T2),[4]; 1 mg/kg po,29.66 (1.94) s
same,Exploration time e1 (T1),[4]; 3 mg/kg po,25.02 (2.20) s
same,Exploration time e2 (T2),[4]; 3 mg/kg po,30.55 (1.84) s
same,Exploration time e1 (T1),[4]; 10 mg/kg po,30.01 (1.62) s
same,Exploration time e2 (T2),[4]; 10 mg/kg po,31.35 (1.71) s
same,effect on percent avoidances,[5]; 1 mg/kg po alone,no significant effect
same,effect on number of escape failures,[5]; CAR paradigm,Neither risperidone nor ITI-214 had significant effects
same,effect on avoidance behavior of rats given risperidone,[5]; ITI-214 1 mg/kg po with risperidone 0.8 mg/kg i.p.,did not affect avoidance behavior
